Reference: PubChem BioAssay (NCI)
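Cells were grown in 96-well plates and exposed to each compound for 48 hours at five concentrations; endpoints were interpolated linearly between bracketing concentrations, or set to the highest concentration if not reached. GI50: concentration for 50% inhibition of growth. The concentration for full growth arrest is given as TGI.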

Legend:
Assay in all cases: NCI anticancer screen, dose series, 48 h
HL-60(TB) leukemia = system: HL-60(TB) leukemia
MCF7 breast = system: MCF7 breast
NCI-H226 lung = system: NCI-H226 lung
NCI-H23 lung = system: NCI-H23 lung
NCI-H522 lung = system: NCI-H522 lung
OVCAR-4 ovarian = system: OVCAR-4 ovarian
OVCAR-5 ovarian = system: OVCAR-5 ovarian
OVCAR-8 ovarian = system: OVCAR-8 ovarian
SK-MEL-28 melanoma = system: SK-MEL-28 melanoma
SNB-19 CNS = system: SNB-19 CNS

Nc1ncc(-c2ccc(C(F)(F)F)cc2)c(NC2CCCCCC2)n1
GI50 (HL-60(TB) leukemia): 21.4 µM
TGI (HL-60(TB) leukemia): 63.6 µM
GI50 (MCF7 breast): 27.5 µM
TGI (MCF7 breast): > 100 µM
GI50 (NCI-H226 lung): 12.9 µM
TGI (NCI-H226 lung): > 100 µM
GI50 (NCI-H23 lung): 20 µM
TGI (NCI-H23 lung): > 100 µM
GI50 (NCI-H522 lung): 27700 nM
TGI (NCI-H522 lung): > 100 µM
GI50 (OVCAR-4 ovarian): 16.7 µM
TGI (OVCAR-4 ovarian): > 100 µM
GI50 (OVCAR-5 ovarian): 45.6 µM
TGI (OVCAR-5 ovarian): > 100 µM
GI50 (OVCAR-8 ovarian): 32.5 µM
TGI (OVCAR-8 ovarian): > 100 µM
GI50 (SK-MEL-28 melanoma): 53.6 µM
TGI (SK-MEL-28 melanoma): > 100 µM
GI50 (SNB-19 CNS): 47.4 µM
TGI (SNB-19 CNS): > 100 µM

O=c1[nH]nc2c3c(cccc13)NC(CN1Cc3ccccc3C1)=N2
GI50 (HL-60(TB) leukemia): 9.13 µM
TGI (HL-60(TB) leukemia): > 100 µM
GI50 (MCF7 breast): 3.82 µM
TGI (MCF7 breast): > 100 µM
GI50 (NCI-H226 lung): 30.3 µM
TGI (NCI-H226 lung): > 100 µM
GI50 (NCI-H23 lung): 4.41 µM
TGI (NCI-H23 lung): > 100 µM
GI50 (NCI-H522 lung): 2770 nM
TGI (NCI-H522 lung): > 100 µM
GI50 (OVCAR-4 ovarian): 5.77 µM
TGI (OVCAR-4 ovarian): > 100 µM
GI50 (OVCAR-5 ovarian): 5.73 µM
TGI (OVCAR-5 ovarian): > 100 µM
GI50 (OVCAR-8 ovarian): 15 µM
TGI (OVCAR-8 ovarian): > 100 µM
GI50 (SK-MEL-28 melanoma): 15.3 µM
TGI (SK-MEL-28 melanoma): > 100 µM
GI50 (SNB-19 CNS): 52.3 µM
TGI (SNB-19 CNS): > 100 µM

COC[C@H]1OC(=O)c2coc3c2[C@@]1(C)C1=C(C3=O)[C@@H]2CCC(=O)[C@@]2(C)C[C@H]1OC(C)=O
GI50 (HL-60(TB) leukemia): 2.98 µM
TGI (HL-60(TB) leukemia): 53.7 µM
TGI (MCF7 breast): > 100 µM
GI50 (NCI-H226 lung): 11 µM
TGI (NCI-H226 lung): > 100 µM
TGI (NCI-H23 lung): > 100 µM
TGI (NCI-H522 lung): > 71.9 µM
GI50 (OVCAR-4 ovarian): 18.6 µM
TGI (OVCAR-4 ovarian): > 100 µM
TGI (OVCAR-5 ovarian): > 100 µM
TGI (OVCAR-8 ovarian): > 100 µM
TGI (SK-MEL-28 melanoma): > 100 µM
TGI (SNB-19 CNS): > 100 µM

CN(C)CC#Cc1cccc(C(=O)c2cnn(-c3ccc(F)cc3)c2N)c1
GI50 (HL-60(TB) leukemia): > 25 µM
TGI (HL-60(TB) leukemia): > 25 µM
GI50 (MCF7 breast): > 25 µM
TGI (MCF7 breast): > 25 µM
GI50 (NCI-H226 lung): > 21.9 µM
TGI (NCI-H226 lung): > 25 µM
GI50 (NCI-H23 lung): > 25 µM
TGI (NCI-H23 lung): > 25 µM
GI50 (NCI-H522 lung): > 25000 nM
TGI (NCI-H522 lung): > 25 µM
GI50 (OVCAR-4 ovarian): > 17.4 µM
TGI (OVCAR-4 ovarian): > 25 µM
GI50 (OVCAR-5 ovarian): > 25 µM
TGI (OVCAR-5 ovarian): > 25 µM
GI50 (OVCAR-8 ovarian): > 25 µM
TGI (OVCAR-8 ovarian): > 25 µM
GI50 (SK-MEL-28 melanoma): > 25 µM
TGI (SK-MEL-28 melanoma): > 25 µM
GI50 (SNB-19 CNS): > 25 µM
TGI (SNB-19 CNS): > 25 µM

CCc1nc2ccc(Cc3ccc(C(=O)NO)cc3)cc2c(=O)n1CCc1ccccc1
GI50 (HL-60(TB) leukemia): 2.25 µM
TGI (HL-60(TB) leukemia): 83.1 µM
GI50 (MCF7 breast): 1.34 µM
TGI (MCF7 breast): 6.82 µM
GI50 (NCI-H226 lung): 1.24 µM
TGI (NCI-H226 lung): 3.05 µM
GI50 (NCI-H23 lung): 1.11 µM
TGI (NCI-H23 lung): 3.89 µM
GI50 (NCI-H522 lung): 302 nM
TGI (NCI-H522 lung): 1.68 µM
GI50 (OVCAR-4 ovarian): 1.25 µM
TGI (OVCAR-4 ovarian): 6.09 µM
GI50 (OVCAR-5 ovarian): 1.36 µM
TGI (OVCAR-5 ovarian): 12.8 µM
GI50 (OVCAR-8 ovarian): 0.584 µM
TGI (OVCAR-8 ovarian): 4.16 µM
GI50 (SK-MEL-28 melanoma): 1.47 µM
TGI (SK-MEL-28 melanoma): 5.72 µM
GI50 (SNB-19 CNS): 2.07 µM
TGI (SNB-19 CNS): 7.57 µM

CCOC(=O)[C@@H](C)C[C@H](Cc1ccccc1)NC(=O)c1csc([C@@H](C[C@H](C(C)C)N(C)C(=O)[C@H](CCC(C)C)NC(=O)[C@H]2CCCCN2C)OC(C)=O)n1
GI50 (HL-60(TB) leukemia): < 0.00333 µM
TGI (HL-60(TB) leukemia): 0.0104 µM
GI50 (MCF7 breast): < 0.00333 µM
TGI (MCF7 breast): 6.3 µM
GI50 (NCI-H226 lung): 0.0495 µM
TGI (NCI-H226 lung): 11.6 µM
GI50 (NCI-H23 lung): 0.0129 µM
TGI (NCI-H23 lung): > 33.3 µM
GI50 (NCI-H522 lung): < 3.33 nM
TGI (NCI-H522 lung): 0.00708 µM
GI50 (OVCAR-4 ovarian): 0.497 µM
TGI (OVCAR-4 ovarian): > 33.3 µM
GI50 (OVCAR-5 ovarian): 0.0115 µM
TGI (OVCAR-5 ovarian): 10.3 µM
GI50 (OVCAR-8 ovarian): 0.0125 µM
TGI (OVCAR-8 ovarian): 10.1 µM
GI50 (SNB-19 CNS): < 0.00333 µM
TGI (SNB-19 CNS): 10.7 µM
